Results: patent publication US7585873B2, “1-(aminoalkyl)-3-sulfonylazaindoles as 5-hydroxytryptamine-6 ligands” (Wyeth, priority 2002, dated 2009)
pKi: −log10 of the molar value. Structures can show the parent of a compound that is named as a salt. Where two headings read alike, the source gives them in different places.

Columns and labels:
[1] = target: T1, human cloned 5-HT6 receptors (Homo sapiens, UniProt P50406); experiment: 5-HT6 binding affinity, [3H]-LSD displacement on membranes of Hela cells expressing human cloned 5-HT6 receptors
T1 construct: expressed in transfected cells; host or cells: Hela cells
T1 sequence (P50406 whole entry): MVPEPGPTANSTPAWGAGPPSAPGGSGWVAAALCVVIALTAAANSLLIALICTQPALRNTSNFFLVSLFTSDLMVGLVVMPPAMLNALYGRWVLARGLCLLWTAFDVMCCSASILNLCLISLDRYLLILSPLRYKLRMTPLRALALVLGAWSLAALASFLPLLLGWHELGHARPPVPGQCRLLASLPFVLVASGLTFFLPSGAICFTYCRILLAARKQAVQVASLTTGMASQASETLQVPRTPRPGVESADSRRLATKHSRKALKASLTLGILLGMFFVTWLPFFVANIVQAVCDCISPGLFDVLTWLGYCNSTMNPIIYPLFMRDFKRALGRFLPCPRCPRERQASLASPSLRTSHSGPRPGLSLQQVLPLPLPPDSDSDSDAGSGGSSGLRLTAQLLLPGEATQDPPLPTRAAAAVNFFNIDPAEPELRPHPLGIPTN

[2] = [3H]-LSD 3.0 nM, Hela cell membranes, 120 min at room temperature, read-out: 5-HT6 Binding Ki

Row | melting point [°C] | pKi [1, 2] | Compound | other results
1 | 189 to 192 |  | CN(C)CCn1cc(S(=O)(=O)c2ccc(F)cc2)c2cccnc21 (as salt: hydrochloride) [Example 13] | 
2 | 182 to 186 |  | CN(C)CCn1cc(S(=O)(=O)c2cccc(Cl)c2)c2cccnc21 (as salt: hydrochloride) [Example 14] | 
3 | 202 to 204 |  | NCCn1cc(S(=O)(=O)c2cccc(F)c2)c2cccnc21 (as salt: hydrochloride) [Example 17] | 
4 | 108 to 112 |  | CN(C)CCn1cc(S(=O)(=O)c2cccc(C(F)(F)F)c2)c2cccnc21 (as salt: hydrochloride) [Example 19] | 
5 | 179 to 183 |  | NCCn1cc(S(=O)(=O)c2cccc(C(F)(F)F)c2)c2cccnc21 (as salt: hydrochloride) [Example 22] | 
6 | 202 to 204 |  | NCCn1cc(S(=O)(=O)c2cccs2)c2cccnc21 (as salt: hydrochloride) [Example 23] | 
7 | 136 to 140 |  | NCCn1cc(S(=O)(=O)c2cc(Cl)cc(Cl)c2)c2cccnc21 (as salt: hydrochloride) [Example 24] | 
8 | 212 to 216 |  | CN(C)CCn1cc(S(=O)(=O)c2cccs2)c2cccnc21 (as salt: hydrochloride) [Example 25] | 
9 | 227 to 232 |  | CN(C)CCn1cc(S(=O)(=O)c2cc(Cl)cc(Cl)c2)c2cccnc21 (as salt: hydrochloride) [Example 26] | 
10 | 197 to 199 |  | O=S(=O)(c1cccc(F)c1)c1cn(CCN2CCCCC2)c2ncccc12 (as salt: hydrochloride) [Example 29] | 
11 | 127 to 129 |  | O=S(=O)(c1cccc(F)c1)c1cn(CCN2CCOCC2)c2ncccc12 (as salt: hydrochloride) [Example 30] | 
12 | 169 to 171 |  | CN(C)CCn1cc(S(=O)(=O)c2ccc(Cl)s2)c2cccnc21 (as salt: hydrochloride) [Example 33] | 
13 | 230 to 232 |  | CN(C)CCn1cc(S(=O)(=O)c2cc(Cl)ccc2Cl)c2cccnc21 (as salt: hydrochloride) [Example 38] | 
14 | 233 to 238 |  | NCCn1cc(S(=O)(=O)c2ccc3ccccc3c2)c2cccnc21 (as salt: hydrochloride) [Example 67] | 
15 |  | 8.22 | NCCn1cc(S(=O)(=O)c2ccccc2)c2cccnc21 [Example 5, 2-[3-(Phenylsulfonyl)-1H-pyrrolo[2,3-b]pyridin-1-yl]ethylamine dihydrochloride] | 
16 |  | 8.05 | Cc1ccc(S(=O)(=O)c2cn(CCN)c3ncccc23)cc1 [Example 7, 2-{3-[(4-Methylphenyl)sulfonyl]-1H-pyrrolo[2,3-b]pyridin-1-yl}ethylamine dihydrochloride] | 
17 |  | 7.30 | CN(C)CCn1cc(S(=O)(=O)c2ccc(F)cc2)c2cccnc21 [Example 13] | 
18 |  | 8.70 | CN(C)CCn1cc(S(=O)(=O)c2cccc(Cl)c2)c2cccnc21 [Example 14] | 
19 |  | 8.22 | NCCn1cc(S(=O)(=O)c2cccc(F)c2)c2cccnc21 [Example 17] | 
20 |  | 8.30 | CN(C)CCn1cc(S(=O)(=O)c2cccc(C(F)(F)F)c2)c2cccnc21 [Example 19] | 

Row | melting point [°C] | pKi [1, 2] | Compound | other results
21 |  | 8.70 | NCCn1cc(S(=O)(=O)c2cccc(C(F)(F)F)c2)c2cccnc21 [Example 22] | 
22 |  | 8.05 | NCCn1cc(S(=O)(=O)c2cccs2)c2cccnc21 [Example 23] | 
23 |  | 8.52 | NCCn1cc(S(=O)(=O)c2cc(Cl)cc(Cl)c2)c2cccnc21 [Example 24] | 
24 |  | 7.82 | CN(C)CCn1cc(S(=O)(=O)c2cccs2)c2cccnc21 [Example 25] | 
25 |  | 8.40 | CN(C)CCn1cc(S(=O)(=O)c2cc(Cl)cc(Cl)c2)c2cccnc21 [Example 26] | 
26 |  | 7.35 | O=S(=O)(c1cccc(Cl)c1)c1cn(CCN2CCCC2)c2ncccc12 [Example 27] | 
27 |  | 7.06 | O=S(=O)(c1cccc(F)c1)c1cn(CCN2CCCC2)c2ncccc12 [Example 28] | 
28 |  | 6.80 | O=S(=O)(c1cccc(F)c1)c1cn(CCN2CCCCC2)c2ncccc12 [Example 29] | 
29 |  | 6.39 | O=S(=O)(c1cccc(F)c1)c1cn(CCN2CCOCC2)c2ncccc12 [Example 30] | 
30 |  | 8.40 | CN(C)CCn1cc(S(=O)(=O)c2ccc(Cl)s2)c2cccnc21 [Example 33] | 
31 | 74 to 76 | 7.70 | CCN(CC)CCn1cc(S(=O)(=O)c2cccc(Cl)c2)c2cccnc21 [Example 35] | 
32 | 212 to 215 | 6.99 | Cc1c(S(=O)(=O)c2cn(CCN(C)C)c3ncccc23)sc2ccc(Cl)cc12 [Example 36] | 
33 | 220 to 222 | 8.05 | CN(C)CCn1cc(S(=O)(=O)c2c(Cl)cccc2Cl)c2cccnc21 [Example 37] | 
34 |  | 7.92 | CN(C)CCn1cc(S(=O)(=O)c2cc(Cl)ccc2Cl)c2cccnc21 [Example 38] | 
35 | 195 to 197 | 8.00 | Cc1cccc(S(=O)(=O)c2cn(CCN(C)C)c3ncccc23)c1 [Example 40] | 
36 | 148 to 150 | 7.20 | CN(C)CCn1cc(S(=O)(=O)c2cccc(C#N)c2)c2cccnc21 [Example 44] | 
37 |  | 8.52 | CCNCCn1cc(S(=O)(=O)c2cccc(Cl)c2)c2cccnc21 [Example 60] | 
38 | 244 to 246 | 9.00 | CNCCn1cc(S(=O)(=O)c2cccc(C)c2)c2cccnc21 [Example 62] | 
39 |  | 7.62 | NCCn1cc(S(=O)(=O)c2ccc3ccccc3c2)c2cccnc21 [Example 67] | 

Second part, the compound before the results:

Row | Compound | melting point [°C] | pKi [1, 2] | other results
40 | CN(C)CCn1cc(S(=O)(=O)c2cccc3ccccc23)c2cccnc21 (as salt: hydrochloride) [Example 15] | 203 to 206 |  | 
41 | NCCn1cc(S(=O)(=O)c2cccc3ccccc23)c2cccnc21 (as salt: hydrochloride) [Example 16] | 148 to 170 |  | 
42 | CN(C)CCn1cc(S(=O)(=O)c2ccccc2C(F)(F)F)c2cccnc21 (as salt: hydrochloride) [Example 20] | 196 to 198 |  | 
43 | NCCn1cc(S(=O)(=O)c2ccccc2C(F)(F)F)c2cccnc21 (as salt: hydrochloride) [Example 21] | 182 to 185 |  | 
44 | CN(C)CCn1cc(S(=O)(=O)c2c(Cl)nc3sccn23)c2cccnc21 (as salt: hydrochloride) [Example 34] | 180 to 182 |  | 
45 | Cc1c(S(=O)(=O)c2cccc(F)c2)c2cccnc2n1CCN (as salt: hydrochloride) [Example 66] | 239 to 241 |  | 
46 | CC(CN)n1cc(S(=O)(=O)c2ccccc2)c2cccnc21 (stereo not drawn) (as salt: hydrochloride) [Example 68] | 180 to 185 |  | 
47 | CN(C)CCn1cc(S(=O)(=O)c2ccccc2)c2cccnc21 [Example 6, N,N-Dimethyl-N-{2-[3-(phenylsulfonyl)-1H-pyrrolo[2,3-b]pyridin-1-yl]ethyl}amine dihydrochloride] |  |  | pKi ([1]; read-out: 5-HT6 Binding Ki): 7.64
48 | NCCn1cc(S(=O)(=O)c2ccc(F)cc2)c2cccnc21 [Example 11, 2-{3-[(4-Fluorophenyl)sulfonyl]-1H-pyrrolo[2,3-b]pyridin-1yl}ethylamine hydrochloride] |  |  | pKi ([1]; read-out: 5-HT6 Binding Ki): 7.66
49 | NCCn1cc(S(=O)(=O)c2cccc(Cl)c2)c2cccnc21 [Example 12, 2-{3-[(3-Chlorophenyl)sulfonyl]-1H-pyrrolo[2,3-b]pyridin-1-yl}ethylamine dihydrochloride] |  |  | pKi [1]: 7.70
50 | CN(C)CCn1cc(S(=O)(=O)c2cccc3ccccc23)c2cccnc21 [Example 15] |  |  | pKi ([1]; read-out: 5-HT6 Binding Ki): 9.00
51 | NCCn1cc(S(=O)(=O)c2cccc3ccccc23)c2cccnc21 [Example 16] |  | 8.70 | 
52 | Cc1c(S(=O)(=O)c2ccccc2)c2cccnc2n1CCN [Example 18] |  | 8.30 | 
53 | CN(C)CCn1cc(S(=O)(=O)c2ccccc2C(F)(F)F)c2cccnc21 [Example 20] |  | 7.96 | 
54 | NCCn1cc(S(=O)(=O)c2ccccc2C(F)(F)F)c2cccnc21 [Example 21] |  | 8.70 | 
55 | CN(C)CCn1cc(S(=O)(=O)c2c(Cl)nc3sccn23)c2cccnc21 [Example 34] |  | 8.70 | 
56 | O=S(=O)(c1cn(CCN(Cc2ccccc2)Cc2ccccc2)c2ncccc12)c1c(Cl)nc2sccn12 [Example 39] | 140 to 145 | 6.67 | 
57 | CN(C)CCn1cc(S(=O)(=O)c2ccccc2)c2ccc(Br)nc21 [Example 41] | 182 to 184 | 7.39 | 
58 | COc1ccc2c(S(=O)(=O)c3ccccc3)cn(CCN(C)C)c2n1 [Example 42] |  | 7.41 | 
59 | Cc1c(S(=O)(=O)c2ccc3ccccc3c2)c2cccnc2n1CCN(C)C [Example 45] | 238 to 240 | 8.00 | 
60 | CNCCn1cc(S(=O)(=O)c2cccc(Cl)c2)c2cccnc21 [Example 57, N-(2-{3-[(3-Chlorophenyl)sulfonyl]-1H-pyrrolo[2,3-b]pyridin-1-yl}ethyl)-N-methylamine Hydrochloride] |  |  | pKi ([1]; read-out: 5-HT6 Binding Ki): 9.52
61 | CNCCn1cc(S(=O)(=O)c2c(Cl)nc3sccn23)c2cccnc21 [Example 58] | 182 to 186 | 9.00 | 
62 | CNCCn1cc(S(=O)(=O)c2cccc(F)c2)c2cccnc21 [Example 59] | 255 to 260 |  | pKi ([1]; read-out: 5-HT6 Binding Ki): 9.00
63 | O=S(=O)(c1cn(CCNCc2ccccc2)c2ncccc12)c1c(Cl)nc2sccn12 [Example 61] | 173 to 175 | 8.05 | 
64 | Cc1c(S(=O)(=O)c2cccc(F)c2)c2cccnc2n1CCN [Example 66] |  | 8.70 | 
65 | CC(CN)n1cc(S(=O)(=O)c2ccccc2)c2cccnc21 (stereo not drawn) [Example 68] |  | 7.85 | 
66 | CN(C)CCn1cc(S(=O)(=O)c2cccc(F)c2)c2ncccc21 [Example 77, N,N-Dimethyl-N-(2-{3-[(3-fluorophenyl)sulfonyl]-1H-pyrrolo[3,2-b]pyridin-1-yl}ethyl)amine Dihydrochloride] |  | 6.70 | 
67 | COc1ccc2c(n1)c(S(=O)(=O)c1ccc(Br)cc1)cn2CCN(C)C [Example 78] | 225 to 226 | 8.40 | 
68 | COc1ccc2c(n1)c(S(=O)(=O)c1cccc(F)c1)cn2CCN(C)C [Example 79] | 208 to 212 | 7.96 | 
69 | COc1ccc2c(n1)c(S(=O)(=O)c1cccc3ccccc13)cn2CCN(C)C [Example 80] | 233 to 235 | 8.70 | 
